Source: PubChem BioAssay AID1963852 (Molecular Pharmacology Branch, DTP, NCI, 2024)
pIC50: −log10 of the molar value.

Tested on: 282377-053-R-J1-PDC complex spheroid viability
Assay: Anticancer human tumor 282377-053-R-J1-PDC patient-derived colon adenocarcinoma cell line growth inhibition [POLQ]
Details: for pIC50: curve of first compound; for viability, T/C: stronger effect = lower value
In short: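 Complex spheroid viability model combining PDC tumour cells with endothelial (HUVEC) and MSC stromal cells. Novobiocin, ART-558 or RP6685 were tested singly and in combination with standard and investigational anticancer drugs. Each was titrated in half-log steps from near clinical Cmax, or from 10 microM where Cmax was unknown.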

[1] = second compound 0.0316 µM, first compound 0.0316 µM
[2] = second compound 0.0316 µM, first compound 0.1 µM
[3] = second compound 0.0316 µM, first compound 0.316 µM
[4] = second compound 0.0316 µM, first compound 1 µM
[5] = second compound 0.0316 µM, first compound 3.16 µM
[6] = second compound 0.0316 µM, first compound 10 µM
[7] = second compound 0.1 µM, first compound 0.0316 µM
[8] = second compound 0.1 µM, first compound 0.1 µM
[9] = second compound 0.1 µM, first compound 0.316 µM
[10] = second compound 0.1 µM, first compound 1 µM
[11] = second compound 0.1 µM, first compound 3.16 µM
[12] = second compound 0.1 µM, first compound 10 µM
[13] = second compound 0.316 µM, first compound 0.0316 µM
[14] = second compound 0.316 µM, first compound 0.1 µM
[15] = second compound 0.316 µM, first compound 0.316 µM
[16] = second compound 0.316 µM, first compound 1 µM
[17] = second compound 0.316 µM, first compound 3.16 µM
[18] = second compound 0.316 µM, first compound 10 µM
[19] = second compound 1 µM, first compound 0.0316 µM
[20] = second compound 1 µM, first compound 0.1 µM
[21] = second compound 1 µM, first compound 0.316 µM
[22] = second compound 1 µM, first compound 1 µM
[23] = second compound 1 µM, first compound 3.16 µM
[24] = second compound 1 µM, first compound 10 µM
[25] = second compound 3.16 µM, first compound 0.0316 µM
[26] = second compound 3.16 µM, first compound 0.1 µM
[27] = second compound 3.16 µM, first compound 0.316 µM
[28] = second compound 3.16 µM, first compound 1 µM
[29] = second compound 3.16 µM, first compound 3.16 µM
[30] = second compound 3.16 µM, first compound 10 µM
[31] = second compound 10 µM, first compound 0.0316 µM
[32] = second compound 10 µM, first compound 0.1 µM
[33] = second compound 10 µM, first compound 0.316 µM
[34] = second compound 10 µM, first compound 1 µM
[35] = second compound 10 µM, first compound 3.16 µM
[36] = second compound 10 µM, first compound 10 µM
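Also: spheroids exposed to compounds for seven days.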
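For viability, T/C in this document: 100% = DMSO vehicle control viability.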

SMILES: CCCS(=O)(=O)Nc1ccc(F)c(C(=O)c2c[nH]c3ncc(-c4ccc(Cl)cc4)cc23)c1F + COC1C(OC(N)=O)C(O)C(Oc2ccc3c(O)c(NC(=O)c4ccc(O)c(CC=C(C)C)c4)c(=O)oc3c2C)OC1(C)C
- pIC50 (second compound 0.0316 µM): 5.45
- pIC50 (second compound 0.1 µM): 5.39
- pIC50 (second compound 0.316 µM): 5.46
- pIC50 (second compound 1 µM): 5.46
- pIC50 (second compound 3.16 µM): 5.42
- pIC50 (second compound 10 µM): 5.63
- viability, T/C [1]: 91.9%
- viability, T/C [2]: 77.1%
- viability, T/C [3]: 81.1%
- viability, T/C [4]: 56.5%
- viability, T/C [5]: 59.4%
- viability, T/C [6]: 33.2%
- viability, T/C [7]: 86.6%
- viability, T/C [8]: 76.1%
- viability, T/C [9]: 65.7%
- viability, T/C [10]: 68.4%
- viability, T/C [11]: 60%
- viability, T/C [12]: 29.9%
- viability, T/C [13]: 89.8%
- viability, T/C [14]: 65.5%
- viability, T/C [15]: 63.5%
- viability, T/C [16]: 65.3%
- viability, T/C [17]: 58.4%
- viability, T/C [18]: 32.9%
- viability, T/C [19]: 108%
- viability, T/C [20]: 63.7%
- viability, T/C [21]: 80.9%
- viability, T/C [22]: 58.5%
- viability, T/C [23]: 66.5%
- viability, T/C [24]: 30.6%
- viability, T/C [25]: 93.1%
- viability, T/C [26]: 82%
- viability, T/C [27]: 68.7%
- viability, T/C [28]: 54.9%
- viability, T/C [29]: 68.4%
- viability, T/C [30]: 33.2%
- viability, T/C [31]: 89.1%
- viability, T/C [32]: 73.5%
- viability, T/C [33]: 73.1%
- viability, T/C [34]: 73.3%
- viability, T/C [35]: 42.2%
- viability, T/C [36]: 38%

SMILES: CCc1cc2c(N3CCc4c(cc(Cn5ccnc5)cc4-c4cn(C)nc4C(F)(F)F)C3=O)ccnc2c(OC)n1 + COC1C(OC(N)=O)C(O)C(Oc2ccc3c(O)c(NC(=O)c4ccc(O)c(CC=C(C)C)c4)c(=O)oc3c2C)OC1(C)C
- pIC50 (second compound 0.0316 µM): < 5.00
- pIC50 (second compound 0.1 µM): < 5.00
- pIC50 (second compound 0.316 µM): < 5.00
- pIC50 (second compound 1 µM): < 5.00
- pIC50 (second compound 3.16 µM): < 5.00
- pIC50 (second compound 10 µM): < 5.00
- viability, T/C [1]: 114%
- viability, T/C [2]: 132%
- viability, T/C [3]: 139%
- viability, T/C [4]: 144%
- viability, T/C [5]: 135%
- viability, T/C [6]: 72.3%
- viability, T/C [7]: 120%
- viability, T/C [8]: 153%
- viability, T/C [9]: 140%
- viability, T/C [10]: 146%
- viability, T/C [11]: 118%
- viability, T/C [12]: 90.6%
- viability, T/C [13]: 147%
- viability, T/C [14]: 110%
- viability, T/C [15]: 132%
- viability, T/C [16]: 130%
- viability, T/C [17]: 127%
- viability, T/C [18]: 78%
- viability, T/C [19]: 124%
- viability, T/C [20]: 109%
- viability, T/C [21]: 123%
- viability, T/C [22]: 134%
- viability, T/C [23]: 132%
- viability, T/C [24]: 95.4%
- viability, T/C [25]: 124%
- viability, T/C [26]: 124%
- viability, T/C [27]: 150%
- viability, T/C [28]: 145%
- viability, T/C [29]: 118%
- viability, T/C [30]: 86.9%
- viability, T/C [31]: 115%
- viability, T/C [32]: 127%
- viability, T/C [33]: 144%
- viability, T/C [34]: 161%
- viability, T/C [35]: 113%
- viability, T/C [36]: 92.9%

SMILES: COc1cc2cc(C(=O)CCC(=O)O)sc2cc1OC + COC1C(OC(N)=O)C(O)C(Oc2ccc3c(O)c(NC(=O)c4ccc(O)c(CC=C(C)C)c4)c(=O)oc3c2C)OC1(C)C
- pIC50 (second compound 0.0316 µM): < 5.00
- pIC50 (second compound 0.1 µM): < 5.00
- pIC50 (second compound 0.316 µM): < 5.00
- pIC50 (second compound 1 µM): < 5.00
- pIC50 (second compound 3.16 µM): < 5.00
- pIC50 (second compound 10 µM): < 5.00
- viability, T/C [1]: 118%
- viability, T/C [2]: 103%
- viability, T/C [3]: 128%
- viability, T/C [4]: 104%
- viability, T/C [5]: 113%
- viability, T/C [6]: 99.3%
- viability, T/C [7]: 105%
- viability, T/C [8]: 105%
- viability, T/C [9]: 116%
- viability, T/C [10]: 107%
- viability, T/C [11]: 99.1%
- viability, T/C [12]: 88.3%
- viability, T/C [13]: 121%
- viability, T/C [14]: 102%
- viability, T/C [15]: 83.1%
- viability, T/C [16]: 105%
- viability, T/C [17]: 86.9%
- viability, T/C [18]: 93.2%
- viability, T/C [19]: 109%
- viability, T/C [20]: 97.1%
- viability, T/C [21]: 109%
- viability, T/C [22]: 97.1%
- viability, T/C [23]: 114%
- viability, T/C [24]: 86.6%
- viability, T/C [25]: 111%
- viability, T/C [26]: 87.3%
- viability, T/C [27]: 119%
- viability, T/C [28]: 99.5%
- viability, T/C [29]: 86.7%
- viability, T/C [30]: 115%
- viability, T/C [31]: 99%
- viability, T/C [32]: 93.7%
- viability, T/C [33]: 117%
- viability, T/C [34]: 115%
- viability, T/C [35]: 105%
- viability, T/C [36]: 123%

SMILES: COc1ccc([C@@H](O)c2cc(-c3ncnc4cc(N5CCOCC5)ccc34)c(F)cc2Cl)nn1 + COC1C(OC(N)=O)C(O)C(Oc2ccc3c(O)c(NC(=O)c4ccc(O)c(CC=C(C)C)c4)c(=O)oc3c2C)OC1(C)C
- pIC50 (second compound 0.0316 µM): < 5.00
- pIC50 (second compound 0.1 µM): < 5.00
- pIC50 (second compound 0.316 µM): < 5.00
- pIC50 (second compound 1 µM): < 5.00
- pIC50 (second compound 3.16 µM): < 5.00
- pIC50 (second compound 10 µM): < 5.00
- viability, T/C [1]: 109%
- viability, T/C [2]: 105%
- viability, T/C [3]: 104%
- viability, T/C [4]: 85.4%
- viability, T/C [5]: 85.4%
- viability, T/C [6]: 78.5%
- viability, T/C [7]: 108%
- viability, T/C [8]: 106%
- viability, T/C [9]: 95.1%
- viability, T/C [10]: 73.7%
- viability, T/C [11]: 70.1%
- viability, T/C [12]: 62.3%
- viability, T/C [13]: 96.5%
- viability, T/C [14]: 89.3%
- viability, T/C [15]: 78.2%
- viability, T/C [16]: 88.1%
- viability, T/C [17]: 77.5%
- viability, T/C [18]: 69.2%
- viability, T/C [19]: 93.2%
- viability, T/C [20]: 90.9%
- viability, T/C [21]: 101%
- viability, T/C [22]: 87.2%
- viability, T/C [23]: 95%
- viability, T/C [24]: 66.2%
- viability, T/C [25]: 94%
- viability, T/C [26]: 91.8%
- viability, T/C [27]: 90.7%
- viability, T/C [28]: 89.4%
- viability, T/C [29]: 79.3%
- viability, T/C [30]: 57.6%
- viability, T/C [31]: 102%
- viability, T/C [32]: 91.6%
- viability, T/C [33]: 91.7%
- viability, T/C [34]: 92.2%
- viability, T/C [35]: 60.1%
- viability, T/C [36]: 75.7%
